In patent US9856290B2, “Glycopeptide compositions and uses thereof” (SUSSEX RESEARCH LABORATORIES INC., priority 2013, dated 2018):
Marks after values point to notes of the source that are not given here. The star is where a group is joined. Ac7‑β‑Cel = heptaacetyl-β-cellobioside (peracetylated β-cellobiose), CC(=O)OC[C@H]1O[C@@H](*)[C@H](OC(C)=O)[C@@H](OC(C)=O)[C@@H]1O[C@@H]1O[C@H](COC(C)=O)[C@@H](OC(C)=O)[C@H](OC(C)=O)[C@H]1OC(C)=O; Ac4‑β‑Gal = tetraacetyl-β-galactoside (peracetylated β-galactose), CC(=O)OC[C@H]1O[C@@H](*)[C@H](OC(C)=O)[C@@H](OC(C)=O)[C@H]1OC(C)=O; Ac4‑β‑Glc = per-acetylated β-glucose (tetraacetyl), CC(=O)OC[C@H]1O[C@@H](*)[C@H](OC(C)=O)[C@@H](OC(C)=O)[C@@H]1OC(C)=O; Ac3‑β‑Fuc = triacetyl-β-fucoside (peracetylated β-fucose), CC(=O)O[C@@H]1[C@H](OC(C)=O)[C@H](C)O[C@H](*)[C@H]1OC(C)=O; βGlcNAc = CC(=O)N[C@@H]1[C@@H](O)[C@H](O)[C@@H](CO)O[C@H]1*; βGlc = OC[C@H]1O[C@@H](*)[C@H](O)[C@@H](O)[C@@H]1O; Palmitoyl = CCCCCCCCCCCCCCCC(=O)*

What was measured:
[1] = test system: Human Dermal Fibroblasts (KMST-6); test: ECM ELISA assay: elastin secretion by human dermal fibroblasts; format: cell-based; conditions: 5 μM, % compared to control set at 100%, normalized to total protein; for Elastin Secretion at 48 hours: KMST-6, 48 hours; for Elastin Secretion at 72 hours: KMST-6, 72 hours
Description: (§1) KMST-6 cells (Japan Health Sciences Foundation, JCRB0433) were seeded at 7,000 cells/ml in 12-well tissue culture treated plates (Falcon, 353043) in complete media. The complete media consisted of the following: MEM/EBSS (Hyclone, SH30024.01), 10% Heat-Inactivated FBS (Gibco, 10082-147), 1% L-Glutamine (Hyclone, SH30031.01), 1% Nucleosides (800 mg/L Adenosine, 850 mg/L Guanidine, 730 mg/L Cytidine, 730 mg/L Uridine and 240 mg/L Thymidine), 1% Penicillin/Streptomycin (HyClone, SV30010), 1% Sodium Pyruvate (HyClone, SH30239.01), 1% Non-Essential Amino Acids (Hyclone, SH30238.01) and 0.04% Gentamicin (Gibco, 15710-064). Cells were grown for 2 days prior to treatments. The media was aspirated and cells were washed with 1×PBS (Fisher, SH30256.01) and treated with 5 μM (1 mL/well) glycopeptides, reference (Pal-KTTKS, CPC Scientific, 822197), and control (DMSO, Fisher, BP231-100) in serum-free media supplemented with 50 μg/mL Sodium Ascorbate (Sigma, A4034) and 80 μg/mL β-Aminopropionate Fumarate (Sigma, A3134). The treated cells were incubated at 37° C. and 5% CO2 for 48 and 72 hours. At each timepoint, media from each treatment was collected and centrifuged at 1500 RPM for 15 minutes at 4° C. The supernatant was collected and stored at −80° C. for extracellular matrix protein quantification. The following kits were used for quantification of ECM proteins: Fibronectin (Takara, MK115) and Elastin (Uscn Life Science Inc., E91337Hu). The cells were harvest and lysed with 250 μL Lysis Buffer (20 mM Tris-HCl (Sigma, T1503), 137 mM NaCl (Sigma, S9888), 2 mM EDTA (Fisher, BP118), 1% IGEPAL (Sigma, 18896), 10% Glycerol (Sigma, G5516), 100 μM PMSF (Fisher, 36978) and 10 μg/mL Leupeptin (Sigma-Aldrich, L2884). They were placed on a container of ice on a plate shaker (Lab-Line Instruments, 3595) for 30 minutes. The lysate was centrifuged at 10,000 g for 5 minutes at 4° C. The supernatant was collected and used for protein quantification (BioRad, 500-0112).
(§2) To determine effects on extracellular matrix protein secretion, 5 μM of individual glycopeptides were incubated with Human Dermal Fibroblasts (KMST-6). The control sample cells were treated with DMSO (Fisher, BP231-100). As described previously, supernatant was collected from treated cells (at two time-points, 48 and 72 hours of treatment) and stored at −80° C. for subsequent extracellular matrix protein quantification using ELISA kits (Fibronectin (Takara, MK115), Elastin (Uscn Life Science Inc., E91337Hu). For the determination of total cellular protein, treated cells were harvested and lysed. The lysate was centrifuged, the supernatant was collected and then used for protein quantification (BioRad, 500-0112). ELISA plates were read on the plate reader (Molecular Devices) at absorbance of 450 nm and SoftMax Pro software was used to compute the μg/ml values of protein of interest derived from the generated 4-parameter fit standard curve. Each μg/ml of protein secreted was normalized to total protein per well. The data was analysed by averaging out normalized values from at least three independent experiments and presenting them as a % compared to control treatment set at 100% (Table 2-5). Statistical significance was performed using One-way ANOVA (p<0.05) where “*” represents statistical significance when compared to control and “#” represents statistical significance when compared to reference. […]

[2] = test system: Human Dermal Fibroblasts (KMST-6); test: ECM ELISA assay: fibronectin secretion by human dermal fibroblasts; format: cell-based; conditions: 5 μM, % compared to control set at 100%, normalized to total protein; for Fibronectin secretion at 48 hours: KMST-6, 48 hours; for Fibronectin Secretion at 72 hours: KMST-6, 72 hours
Description: as §1, §2

Substance	Elastin Secretion at 48 hours [1] [%]	Elastin Secretion at 72 hours [1]	Fibronectin secretion at 48 hours [2] [%]	Fibronectin Secretion at 72 hours [2] [%]
Pal-KTTKS(β-Glc)-OH (Palmitoyl-KTTKS(βGlc)-OH; SMILES CCCCCCCCCCCCCCCC(=O)N[C@@H](CCCCN)C(=O)N[C@H](C(=O)N[C@H](C(=O)N[C@@H](CCCCN)C(=O)N[C@@H](CO[C@@H]1O[C@H](CO)[C@@H](O)[C@H](O)[C@H]1O)C(=O)O)[C@@H](C)O)[C@@H](C)O; listed as Homo sapiens) [GP002-4]	145.0	142.0%	121.5	116.0
Pal-KTT(β-GlcNAc)KS-OH (Palmitoyl-KTT(βGlcNAc)KS-OH; SMILES CCCCCCCCCCCCCCCC(=O)N[C@@H](CCCCN)C(=O)N[C@H](C(=O)N[C@H](C(=O)N[C@@H](CCCCN)C(=O)N[C@@H](CO)C(=O)O)[C@@H](C)O[C@@H]1O[C@H](CO)[C@@H](O)[C@H](O)[C@H]1NC(C)=O)[C@@H](C)O; listed as Homo sapiens) [GP001-12]	73.00	76.75%	106.5	89.25
Pal-KTT(β-Glc)KS-OH (Palmitoyl-KTT(βGlc)KS-OH; SMILES CCCCCCCCCCCCCCCC(=O)N[C@@H](CCCCN)C(=O)N[C@H](C(=O)N[C@H](C(=O)N[C@@H](CCCCN)C(=O)N[C@@H](CO)C(=O)O)[C@@H](C)O[C@@H]1O[C@H](CO)[C@@H](O)[C@H](O)[C@H]1O)[C@@H](C)O; listed as Homo sapiens) [GP001-8]	94.25	91.25%	106.4	106.2
Pal-KTT(Ac4-β-Glc)KS-OH (Palmitoyl-KTT(Ac4‑β‑Glc)KS-OH; SMILES CCCCCCCCCCCCCCCC(=O)N[C@@H](CCCCN)C(=O)N[C@H](C(=O)N[C@H](C(=O)N[C@@H](CCCCN)C(=O)N[C@@H](CO)C(=O)O)[C@@H](C)O[C@@H]1O[C@H](COC(C)=O)[C@@H](OC(C)=O)[C@H](OC(C)=O)[C@H]1OC(C)=O)[C@@H](C)O; listed as Homo sapiens) [GP001-7]			101.3	109.4
Pal-KTT(Ac4-β-Gal)KS-OH (Palmitoyl-KTT(Ac4‑β‑Gal)KS-OH; SMILES CCCCCCCCCCCCCCCC(=O)N[C@@H](CCCCN)C(=O)N[C@H](C(=O)N[C@H](C(=O)N[C@@H](CCCCN)C(=O)N[C@@H](CO)C(=O)O)[C@@H](C)O[C@@H]1O[C@H](COC(C)=O)[C@H](OC(C)=O)[C@H](OC(C)=O)[C@H]1OC(C)=O)[C@@H](C)O; listed as Homo sapiens) [GP004-2]	186.5	138.3%		
Pal-KT(Ac7-β-Cel)TKS-OH (Palmitoyl-KT(Ac7‑β‑Cel)TKS-OH; SMILES CCCCCCCCCCCCCCCC(=O)N[C@@H](CCCCN)C(=O)N[C@H](C(=O)N[C@H](C(=O)N[C@@H](CCCCN)C(=O)N[C@@H](CO)C(=O)O)[C@@H](C)O)[C@@H](C)O[C@@H]1O[C@H](COC(C)=O)[C@@H](O[C@@H]2O[C@H](COC(C)=O)[C@@H](OC(C)=O)[C@H](OC(C)=O)[C@H]2OC(C)=O)[C@H](OC(C)=O)[C@H]1OC(C)=O; listed as Homo sapiens) [GP004-9]	199.3	254.6* %		
Pal-KTTKS(Ac3-β-Fuc)-OH (Palmitoyl-KTTKS(Ac3‑β‑Fuc)-OH; SMILES CCCCCCCCCCCCCCCC(=O)N[C@@H](CCCCN)C(=O)N[C@H](C(=O)N[C@H](C(=O)N[C@@H](CCCCN)C(=O)N[C@@H](CO[C@H]1O[C@@H](C)[C@@H](OC(C)=O)[C@@H](OC(C)=O)[C@@H]1OC(C)=O)C(=O)O)[C@@H](C)O)[C@@H](C)O; listed as Homo sapiens) [GP004-12]	151.4	191.8%		
